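Interpolation was linear, between the two tested concentrations surrounding the appropriate level; five concentrations were tested over 48 hours in 96-well plates. GI50 marks 50% less growth.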 Calls of active or inactive are those of the source. Rule as the data show it: active = GI50 up to about 1.1 µM and inactive = higher.
Tests used:
Assay in all cases: NCI anticancer screen, dose series, 48 h
786-0 = tested on: 786-0
A498 = tested on: A498
ACHN = tested on: ACHN
COLO 205 = tested on: COLO 205
HT-29 = tested on: HT-29
K562 = tested on: K562
M14 = tested on: M14
MCF7 = tested on: MCF7
NCI-H460 = tested on: NCI-H460
NCI/ADR-RES = tested on: NCI/ADR-RES
OVCAR-5 = tested on: OVCAR-5
RXF 393 = tested on: RXF 393
SK-MEL-28 = tested on: SK-MEL-28
SNB-75 = tested on: SNB-75
SR = tested on: SR
T47D = tested on: T47D
U-251 = tested on: U-251
UACC-62 = tested on: UACC-62
HCC 2998 = tested on: HCC 2998

Measured: GI50

N=C(N)NC(=N)Nc1c(F)c(F)c(F)c(F)c1F
inactive: 786-0 > 100 µM | A498 > 100 µM | ACHN > 100 µM | COLO 205 54 µM | HT-29 96.8 µM | K562 41.5 µM | M14 21.1 µM | MCF7 49.4 µM | NCI-H460 90.4 µM | NCI/ADR-RES > 100 µM | OVCAR-5 > 100 µM | RXF 393 > 100 µM | SK-MEL-28 > 100 µM | SNB-75 > 100 µM | SR 17.3 µM | T47D 61.8 µM | U-251 > 100 µM | UACC-62 > 100 µM

COC(=O)CCn1cnc2c(SC)ncnc21
inactive: 786-0 > 100 µM | A498 > 100 µM | ACHN > 100 µM | COLO 205 > 100 µM | HT-29 > 100 µM | K562 > 100 µM | M14 > 100 µM | MCF7 > 100 µM | NCI-H460 > 100 µM | NCI/ADR-RES > 100 µM | OVCAR-5 > 100 µM | RXF 393 > 100 µM | SK-MEL-28 > 100 µM | SNB-75 > 100 µM | SR > 100 µM | T47D > 100 µM | UACC-62 > 100 µM

CC1(C)OC2C(CO)OC(n3ccc(=O)[nH]c3=O)C2O1 (configuration not stated)
inactive: 786-0 > 100 µM | A498 > 100 µM | ACHN > 100 µM | COLO 205 > 100 µM | HCC 2998 > 100 µM | K562 > 100 µM | M14 > 100 µM | MCF7 > 100 µM | NCI-H460 > 100 µM | NCI/ADR-RES > 100 µM | OVCAR-5 > 100 µM | RXF 393 > 100 µM | SK-MEL-28 > 100 µM | SR > 100 µM | T47D > 100 µM | U-251 > 100 µM | UACC-62 > 100 µM

O=C(O)CCCc1ccc2c(c1)CC1(C2)Cc2ccc(CCCC(=O)O)cc2C1
inactive: 786-0 > 100 µM | A498 > 100 µM | ACHN > 100 µM | COLO 205 > 100 µM | HCC 2998 > 100 µM | HT-29 > 100 µM | K562 > 100 µM | M14 > 100 µM | MCF7 > 100 µM | NCI/ADR-RES > 100 µM | OVCAR-5 > 100 µM | RXF 393 > 100 µM | SR > 100 µM | T47D > 100 µM | U-251 > 100 µM | UACC-62 > 100 µM

O=C1C(=Cc2ccccc2[N+](=O)[O-])N=C(c2ccccc2)N1n1c(-c2ccccc2)nc2ccccc2c1=O
inactive: 786-0 38 µM | ACHN 30.8 µM | COLO 205 31.3 µM | HCC 2998 35.8 µM | HT-29 32.1 µM | K562 31.8 µM | M14 42.5 µM | MCF7 17.5 µM | NCI-H460 31.3 µM | NCI/ADR-RES 23.2 µM | OVCAR-5 71.3 µM | RXF 393 16.1 µM | SK-MEL-28 30.9 µM | SNB-75 35.6 µM | SR 37.7 µM | T47D 21 µM | U-251 30 µM | UACC-62 19.1 µM

COc1cc2c(C)cc(O)cc2c2cc(O)c(C)cc12
inactive: 786-0 8.43 µM | A498 11.2 µM | ACHN 12.4 µM | COLO 205 9.91 µM | HCC 2998 13.5 µM | HT-29 14.7 µM | K562 2.48 µM | M14 1.94 µM | MCF7 10.4 µM | NCI-H460 2.56 µM | NCI/ADR-RES 13.5 µM | OVCAR-5 13.7 µM | RXF 393 12.4 µM | SR 1.53 µM | T47D 10.1 µM | U-251 11.2 µM | UACC-62 12 µM

COC(=O)N[C@@H]1C[C@H]2CC[C@]1(O[Si](C(C)C)(C(C)C)C(C)C)C(=O)C2
inactive: 786-0 17.9 µM | A498 21.4 µM | ACHN 18.4 µM | COLO 205 34.6 µM | HT-29 19.1 µM | K562 > 100 µM | M14 18.5 µM | MCF7 21.1 µM | NCI-H460 20.7 µM | NCI/ADR-RES 14.8 µM | OVCAR-5 18.5 µM | SK-MEL-28 14.6 µM | SNB-75 20 µM | SR 6.93 µM | T47D 19 µM | U-251 > 10 µM | UACC-62 15.6 µM

CCOC(=O)C1CN(C2CC2)CCC1=O (configuration not stated)
inactive: 786-0 > 100 µM | ACHN > 100 µM | COLO 205 > 100 µM | HCC 2998 > 100 µM | HT-29 > 100 µM | K562 > 100 µM | M14 > 100 µM | MCF7 > 100 µM | NCI-H460 > 100 µM | NCI/ADR-RES > 100 µM | OVCAR-5 > 100 µM | RXF 393 > 100 µM | SK-MEL-28 > 100 µM | SNB-75 > 100 µM | SR > 100 µM | T47D > 100 µM | U-251 > 100 µM | UACC-62 > 100 µM

O=C(O)C(C1NCCS1)N1Cc2ccccc2C1 (configuration not stated)
inactive: 786-0 > 100 µM | A498 > 100 µM | ACHN > 100 µM | COLO 205 > 100 µM | HT-29 > 100 µM | K562 > 100 µM | M14 > 100 µM | MCF7 > 100 µM | NCI-H460 > 100 µM | NCI/ADR-RES > 100 µM | OVCAR-5 > 100 µM | RXF 393 > 100 µM | SK-MEL-28 > 100 µM | SNB-75 > 100 µM | SR > 100 µM | T47D > 100 µM | U-251 > 100 µM | UACC-62 > 100 µM

NCC1Nc2ccccc2[C@@H](O)C1O (some centres not stated)
inactive: 786-0 > 100 µM | ACHN > 100 µM | COLO 205 > 100 µM | HCC 2998 > 100 µM | HT-29 > 100 µM | K562 > 100 µM | M14 > 100 µM | MCF7 > 100 µM | NCI-H460 > 100 µM | NCI/ADR-RES > 100 µM | OVCAR-5 > 100 µM | RXF 393 > 100 µM | SK-MEL-28 > 100 µM | SNB-75 > 100 µM | SR > 100 µM | T47D > 100 µM | U-251 > 100 µM | UACC-62 > 100 µM

O=C(N/N=C/c1ccccc1)c1cccc2nc3ccccc3nc12
inactive: 786-0 > 100 µM | A498 77.4 µM | ACHN > 100 µM | COLO 205 4.08 µM | HT-29 46.3 µM | K562 > 100 µM | M14 35 µM | MCF7 > 45 µM | NCI-H460 3.5 µM | NCI/ADR-RES > 100 µM | OVCAR-5 > 100 µM | RXF 393 > 100 µM | SK-MEL-28 > 100 µM | SNB-75 > 100 µM | SR > 100 µM | T47D > 100 µM | U-251 > 100 µM | UACC-62 > 100 µM

Source: ChEMBL document CHEMBL1201862, “PubChem BioAssay data set” (2004)
